Measured values from ChEMBL document CHEMBL5346882 (Eur J Med Chem, 2023).

Assays:
[1] = AUC (0 to t) in CD-1 mouse brain at 30 mg/kg, ip administered as single dose and measured after 15 to 240 mins by LC-MS/MS analysis; assay type: ADME, organism-based; set-up: time upper 240 min, dose 30 mg/kg, time lower 15 min, route ip
[2] = AUC (0 to t) in CD-1 mouse plasma at 10 mg/kg, ip administered as single dose and measured after 15 to 240 mins by LC-MS/MS analysis; assay type: ADME, organism-based; set-up: time upper 240 min, dose 10 mg/kg, time lower 15 min, route ip
[3] = MRT in CD-1 mouse brain at 10 mg/kg, ip administered as single dose and measured after 15 to 240 mins by LC-MS/MS analysis; assay type: ADME, organism-based; settings: time 15-240 min
[4] = Tmax in CD-1 mouse brain at 30 mg/kg, ip administered as single dose and measured after 15 to 240 mins by LC-MS/MS analysis; assay type: ADME, organism-based; settings: time 15-240 min
[5] = Tmax in CD-1 mouse brain at 10 mg/kg, ip administered as single dose and measured after 15 to 240 mins by LC-MS/MS analysis; assay type: ADME, organism-based; settings: time 15-240 min
[6] = MRT in CD-1 mouse plasma at 30 mg/kg, ip administered as single dose and measured after 15 to 240 mins by LC-MS/MS analysis; assay type: ADME, organism-based; settings: time 15-240 min
[7] = Cmax in CD-1 mouse brain at 30 mg/kg, ip administered as single dose and measured after 15 to 240 mins by LC-MS/MS analysis; assay type: ADME, organism-based; set-up: time upper 240 min, time lower 15 min, dose 30 mg/kg, route ip
[8] = Apparent volume of distribution in CD-1 mouse plasma at 10 mg/kg, ip administered as single dose and measured after 15 to 240 mins by LC-MS/MS analysis; assay type: ADME, organism-based; settings: in vivo, time 15-240 min
[9] = AUC (0 to t) in CD-1 mouse plasma at 30 mg/kg, ip administered as single dose and measured after 15 to 240 mins by LC-MS/MS analysis; assay type: ADME, organism-based; set-up: dose 30 mg/kg, time 15-240 min, route ip
[10] = Tmax in CD-1 mouse plasma at 30 mg/kg, ip administered as single dose and measured after 15 to 240 mins by LC-MS/MS analysis; assay type: ADME, organism-based; settings: time 15-240 min
[11] = Drug metabolism in human liver microsomes assessed as N-dealkylation mediated metabolite formation; assay type: ADME, Microsome
[12] = Cmax in CD-1 mouse plasma at 30 mg/kg, ip administered as single dose and measured after 15 to 240 mins by LC-MS/MS analysis; assay type: ADME, organism-based; set-up: time upper 240 min, time lower 15 min, dose 30 mg/kg, route ip
[13] = Apparent clearance in CD-1 mouse plasma at 30 mg/kg, ip administered as single dose and measured after 15 to 240 mins by LC-MS/MS analysis; assay type: ADME, organism-based; settings: time 15-240 min, read-out: CL(app)
Cytochrome P450 2D6 = Cytochrome P450 2D6 (Homo sapiens, UniProt P10635); assay: Inhibition of CYP2D6 (unknown origin) at 10 uM; assay type: ADME
Cytochrome P450 2D6, sequence (P10635 whole entry): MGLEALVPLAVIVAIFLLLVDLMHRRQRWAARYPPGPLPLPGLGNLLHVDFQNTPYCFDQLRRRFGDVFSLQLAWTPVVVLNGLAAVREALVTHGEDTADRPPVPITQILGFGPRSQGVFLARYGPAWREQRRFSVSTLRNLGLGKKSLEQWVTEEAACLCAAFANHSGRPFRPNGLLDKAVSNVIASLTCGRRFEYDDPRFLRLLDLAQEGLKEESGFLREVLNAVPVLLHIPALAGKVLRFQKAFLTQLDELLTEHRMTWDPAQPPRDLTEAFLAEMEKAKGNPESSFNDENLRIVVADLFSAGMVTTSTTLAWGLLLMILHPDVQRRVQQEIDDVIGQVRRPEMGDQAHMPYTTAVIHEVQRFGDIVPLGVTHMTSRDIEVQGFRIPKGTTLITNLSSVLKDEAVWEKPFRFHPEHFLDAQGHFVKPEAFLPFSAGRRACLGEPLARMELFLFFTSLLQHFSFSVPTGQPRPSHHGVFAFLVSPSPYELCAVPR

[14] = MRT in CD-1 mouse brain at 30 mg/kg, ip administered as single dose and measured after 15 to 240 mins by LC-MS/MS analysis; assay type: ADME, organism-based; settings: time 15-240 min
[15] = Apparent volume of distribution in CD-1 mouse plasma at 30 mg/kg, ip administered as single dose and measured after 15 to 240 mins by LC-MS/MS analysis; assay type: ADME, organism-based; settings: in vivo, time 15-240 min
[16] = Tmax in CD-1 mouse plasma at 10 mg/kg, ip administered as single dose and measured after 15 to 240 mins by LC-MS/MS analysis; assay type: ADME, organism-based; settings: time 15-240 min
[17] = Half life in CD-1 mouse plasma at 10 mg/kg, ip administered as single dose and measured after 15 to 240 mins by LC-MS/MS analysis; assay type: ADME, organism-based; settings: time 15-240 min
[18] = Half life in CD-1 mouse brain at 30 mg/kg, ip administered as single dose and measured after 15 to 240 mins by LC-MS/MS analysis; assay type: ADME, organism-based; settings: time 15-240 min
[19] = Half life in CD-1 mouse brain at 10 mg/kg, ip administered as single dose and measured after 15 to 240 mins by LC-MS/MS analysis; assay type: ADME, organism-based; settings: time 15-240 min
[20] = target: Sodium- and chloride-dependent GABA transporter 1 (Mus musculus, UniProt P31648); assay: Inhibition of mouse GAT1 expressed in HEK293 cells assessed as reduction in [3H]-GABA uptake incubated for 10 mins; assay type: cell-based
cells [21] = settings: Mus musculus, HEK293
Description: Inhibition of mouse GAT3 expressed in HEK293 cells assessed as reduction in [3H]-GABA uptake incubated for 10 mins

[22] = MRT in CD-1 mouse plasma at 10 mg/kg, ip administered as single dose and measured after 15 to 240 mins by LC-MS/MS analysis; assay type: ADME, organism-based; settings: time 15-240 min
Cytochrome P450 3A4 = Cytochrome P450 3A4 (Homo sapiens, UniProt P08684); assay: Inhibition of CYP3A4 (unknown origin) at 10 uM; assay type: ADME
Cytochrome P450 3A4, sequence (P08684 whole entry): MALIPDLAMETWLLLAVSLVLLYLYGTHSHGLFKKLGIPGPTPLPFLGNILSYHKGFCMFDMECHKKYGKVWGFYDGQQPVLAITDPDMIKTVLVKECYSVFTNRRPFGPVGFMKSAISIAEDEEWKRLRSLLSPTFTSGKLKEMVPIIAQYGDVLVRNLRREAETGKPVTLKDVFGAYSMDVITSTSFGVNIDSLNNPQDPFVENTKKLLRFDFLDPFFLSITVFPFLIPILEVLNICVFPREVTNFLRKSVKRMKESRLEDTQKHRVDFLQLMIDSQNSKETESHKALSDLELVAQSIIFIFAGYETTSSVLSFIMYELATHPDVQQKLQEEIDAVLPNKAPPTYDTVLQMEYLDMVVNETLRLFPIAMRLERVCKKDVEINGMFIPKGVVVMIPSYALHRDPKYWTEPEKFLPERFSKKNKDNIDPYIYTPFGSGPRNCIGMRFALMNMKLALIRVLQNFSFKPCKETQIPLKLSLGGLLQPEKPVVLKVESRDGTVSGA

[23] = Apparent clearance in CD-1 mouse plasma at 10 mg/kg, ip administered as single dose and measured after 15 to 240 mins by LC-MS/MS analysis; assay type: ADME, organism-based; settings: time 15-240 min, read-out: CL(app)
[24] = Ratio of brain to plasma partition coefficient in CD-1 mouse at 30 mg/kg, ip administered as single dose and measured after 15 to 240 mins by LC-MS/MS analysis; assay type: ADME, organism-based; settings: time 15-240 min, read-out: BPR
[25] = AUC (0 to t) in CD-1 mouse brain at 10 mg/kg, ip administered as single dose and measured after 15 to 240 mins by LC-MS/MS analysis; assay type: ADME, organism-based; set-up: time 15-240 min, dose 10 mg/kg, route ip
GABA transporter 4 = target: T1, GABA transporter 4 (Mus musculus, UniProt P31650); assay: Inhibition of mouse GAT4 expressed in HEK293 cells assessed as reduction in [3H]-GABA uptake incubated for 10 mins; assay type: cell-based
T1 sequence (P31650 whole entry): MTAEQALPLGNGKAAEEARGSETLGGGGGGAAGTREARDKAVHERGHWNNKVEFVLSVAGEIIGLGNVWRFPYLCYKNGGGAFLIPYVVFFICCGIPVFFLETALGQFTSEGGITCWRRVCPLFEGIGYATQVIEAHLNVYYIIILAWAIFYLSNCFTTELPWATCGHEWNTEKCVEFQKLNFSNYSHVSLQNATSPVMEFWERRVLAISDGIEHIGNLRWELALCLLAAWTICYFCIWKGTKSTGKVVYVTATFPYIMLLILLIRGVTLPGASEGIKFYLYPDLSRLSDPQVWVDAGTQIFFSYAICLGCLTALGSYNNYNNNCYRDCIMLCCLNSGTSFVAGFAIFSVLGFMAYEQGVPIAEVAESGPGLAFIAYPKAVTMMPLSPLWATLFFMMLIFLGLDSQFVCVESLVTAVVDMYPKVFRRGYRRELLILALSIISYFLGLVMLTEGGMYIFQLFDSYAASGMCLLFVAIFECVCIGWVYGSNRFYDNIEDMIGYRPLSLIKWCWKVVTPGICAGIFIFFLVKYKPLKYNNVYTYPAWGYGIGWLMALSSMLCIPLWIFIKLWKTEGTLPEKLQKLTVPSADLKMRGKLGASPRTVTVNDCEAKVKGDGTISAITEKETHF

[26] = Cmax in CD-1 mouse plasma at 10 mg/kg, ip administered as single dose and measured after 15 to 240 mins by LC-MS/MS analysis; assay type: ADME, organism-based; set-up: dose 10 mg/kg, time 15-240 min, route ip
[27] = Ratio of brain to plasma partition coefficient in CD-1 mouse at 10 mg/kg, ip administered as single dose and measured after 15 to 240 mins by LC-MS/MS analysis; assay type: ADME, organism-based; settings: time 15-240 min, read-out: BPR
[28] = Cmax in CD-1 mouse brain at 10 mg/kg, ip administered as single dose and measured after 15 to 240 mins by LC-MS/MS analysis; assay type: ADME, organism-based; set-up: time 15-240 min, dose 10 mg/kg, route ip
[29] = target: ATP-dependent translocase ABCB1 (Homo sapiens, UniProt P08183); assay: Substrate activity at P-gp membranes (unknown origin) at 100 uM incubated for 40 mins by luminescent glo assay relative to control; assay type: ADME, cell membranes, Membrane
ATP-dependent translocase ABCB1, sequence (P08183 whole entry): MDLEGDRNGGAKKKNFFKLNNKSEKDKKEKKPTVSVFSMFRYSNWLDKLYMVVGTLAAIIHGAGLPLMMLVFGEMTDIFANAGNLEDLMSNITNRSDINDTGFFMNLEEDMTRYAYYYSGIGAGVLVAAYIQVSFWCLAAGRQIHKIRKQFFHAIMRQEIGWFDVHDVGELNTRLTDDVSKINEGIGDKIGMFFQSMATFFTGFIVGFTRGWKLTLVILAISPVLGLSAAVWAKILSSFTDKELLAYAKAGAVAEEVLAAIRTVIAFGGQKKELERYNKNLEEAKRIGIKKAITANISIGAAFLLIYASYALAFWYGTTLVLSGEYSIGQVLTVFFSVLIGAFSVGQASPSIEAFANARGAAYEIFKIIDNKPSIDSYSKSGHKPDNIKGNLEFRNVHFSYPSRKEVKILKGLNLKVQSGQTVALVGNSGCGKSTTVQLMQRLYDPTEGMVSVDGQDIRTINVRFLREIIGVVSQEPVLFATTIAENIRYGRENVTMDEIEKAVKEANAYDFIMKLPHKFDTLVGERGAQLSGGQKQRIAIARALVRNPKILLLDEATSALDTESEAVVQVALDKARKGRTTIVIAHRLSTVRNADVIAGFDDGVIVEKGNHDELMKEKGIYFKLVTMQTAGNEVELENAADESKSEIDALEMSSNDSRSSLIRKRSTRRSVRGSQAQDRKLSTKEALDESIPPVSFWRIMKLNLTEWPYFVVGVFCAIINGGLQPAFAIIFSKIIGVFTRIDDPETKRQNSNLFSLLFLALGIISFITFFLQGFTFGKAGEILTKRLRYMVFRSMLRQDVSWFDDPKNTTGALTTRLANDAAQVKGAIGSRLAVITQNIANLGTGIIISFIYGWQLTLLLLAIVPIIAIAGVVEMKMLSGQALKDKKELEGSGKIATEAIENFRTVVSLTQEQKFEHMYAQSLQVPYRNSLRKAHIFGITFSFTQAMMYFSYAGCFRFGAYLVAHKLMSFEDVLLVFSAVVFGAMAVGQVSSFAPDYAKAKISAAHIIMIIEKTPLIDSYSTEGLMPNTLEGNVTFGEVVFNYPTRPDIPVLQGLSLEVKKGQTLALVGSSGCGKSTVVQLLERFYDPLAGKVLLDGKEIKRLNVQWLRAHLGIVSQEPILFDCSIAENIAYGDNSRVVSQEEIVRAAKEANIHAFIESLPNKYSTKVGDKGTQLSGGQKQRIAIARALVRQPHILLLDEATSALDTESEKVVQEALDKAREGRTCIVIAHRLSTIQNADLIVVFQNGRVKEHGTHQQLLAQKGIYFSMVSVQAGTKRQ

[30] = Half life in CD-1 mouse plasma at 30 mg/kg, ip administered as single dose and measured after 15 to 240 mins by LC-MS/MS analysis; assay type: ADME, organism-based; settings: time 15-240 min
[31] = Metabolic stability in human liver microsomes assessed as parent compound remaining incubated for 120 mins in presence of NADPH regeneration system by UPLC/MS analysis; assay type: ADME, Microsome; settings: read-out: Stability
cells [32] = settings: Mus musculus, HEK293; remark: listed apart in the source
Description: Inhibition of mouse GAT2 expressed in HEK293 cells assessed as reduction in [3H]-GABA uptake incubated for 10 mins

Cholinesterase = Cholinesterase (Homo sapiens, UniProt P06276); assay: Inhibition of human recombinant BuChE using butyrylthiocholine iodide as substrate preincubated for 5 mins followed by substrate addition and measured every 2 mins by DTNB-reagent based Ellman's method
Cholinesterase, sequence (P06276 whole entry): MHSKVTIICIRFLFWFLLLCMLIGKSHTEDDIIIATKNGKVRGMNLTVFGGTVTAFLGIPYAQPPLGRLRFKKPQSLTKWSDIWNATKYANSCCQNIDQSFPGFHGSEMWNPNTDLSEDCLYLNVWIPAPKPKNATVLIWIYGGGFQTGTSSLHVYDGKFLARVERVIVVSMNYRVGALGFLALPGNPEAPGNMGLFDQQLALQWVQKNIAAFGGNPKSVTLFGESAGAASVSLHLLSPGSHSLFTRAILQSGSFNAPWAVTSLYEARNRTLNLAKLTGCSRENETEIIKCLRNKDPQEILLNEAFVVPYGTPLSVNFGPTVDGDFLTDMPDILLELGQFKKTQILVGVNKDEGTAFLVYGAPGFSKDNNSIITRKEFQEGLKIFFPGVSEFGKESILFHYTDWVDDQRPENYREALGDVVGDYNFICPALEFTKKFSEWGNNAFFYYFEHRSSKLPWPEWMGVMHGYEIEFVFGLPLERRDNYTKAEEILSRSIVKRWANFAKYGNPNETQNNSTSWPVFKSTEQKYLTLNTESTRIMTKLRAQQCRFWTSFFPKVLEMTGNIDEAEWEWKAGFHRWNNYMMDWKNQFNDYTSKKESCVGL

Beta-secretase 1 = Beta-secretase 1 (Homo sapiens, UniProt P56817); assay: Inhibition of human recombinant BACE-1 expressed in baculovirus using swedish mutant of APP based Rh-EVNLDAEFK-quencher as substrate incubated for 60 mins by FRET assay
Beta-secretase 1, sequence (P56817 whole entry): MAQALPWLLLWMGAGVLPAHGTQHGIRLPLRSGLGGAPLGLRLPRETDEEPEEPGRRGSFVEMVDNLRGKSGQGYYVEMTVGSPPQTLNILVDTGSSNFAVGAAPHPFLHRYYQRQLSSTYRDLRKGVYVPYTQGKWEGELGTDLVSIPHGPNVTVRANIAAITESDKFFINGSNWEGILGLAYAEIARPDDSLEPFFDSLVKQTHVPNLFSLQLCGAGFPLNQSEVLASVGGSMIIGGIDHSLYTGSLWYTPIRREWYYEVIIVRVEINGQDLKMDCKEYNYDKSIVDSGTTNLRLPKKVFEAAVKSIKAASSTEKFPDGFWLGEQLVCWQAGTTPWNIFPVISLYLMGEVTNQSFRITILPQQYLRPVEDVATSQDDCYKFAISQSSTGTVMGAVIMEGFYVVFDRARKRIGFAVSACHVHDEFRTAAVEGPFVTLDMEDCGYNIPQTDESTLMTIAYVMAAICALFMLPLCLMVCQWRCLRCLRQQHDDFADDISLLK

O=C(CC(c1ccccc1)c1ccccc1)NCC(O)CNCC1CCCCC1 (configuration not stated)
AUC(0-t) [1]: 122 ng·h/mL
AUC(0-t) [2]: 247 ng·h/mL
MRT [3]: 1.88 h
Tmax [4]: 0.25 h
Tmax [5]: 0.25 h
MRT [6]: 1.03 h
Cmax [7]: 44.3 ng/mL
Vz [8]: 80 L/kg
AUC(0-t) [9]: 441 ng·h/mL
Tmax [10]: 0.25 h
Drug metabolism [11]: Metabolite_Detected
Cmax [12]: 312 ng/mL
CL/F [13]: 1070 mL/min/kg
inhibition (INH) (Cytochrome P450 2D6): Active
MRT [14]: 1.8 h
Vz [15]: 84.4 L/kg
Tmax [16]: 0.25 h
half-life [17]: 1.6 h
half-life [18]: 4.24 h
half-life [19]: 5.84 h
IC50 [20]: > 10 µM
IC50 (cells [21]): > 10 µM
MRT [22]: 1.24 h
inhibition (INH) (Cytochrome P450 3A4): Active
CL/F [23]: 577 mL/min/kg
Kp [24]: 0.28
AUC(0-t) [25]: 85.1 ng·h/mL
IC50 (GABA transporter 4): > 10 µM
Cmax [26]: 192 ng/mL
Kp [27]: 0.34
Cmax [28]: 27.4 ng/mL
Activity [29]: <= 190%
half-life [30]: 0.912 h
remaining at 2 h [31]: > 80%
IC50 (cells [32]): > 10 µM

CC(C)(C)c1cccc(CNCC(O)CNCCC(c2ccccc2)c2ccccc2)c1 (configuration not stated)
IC50 (Cholinesterase): 6 µM
IC50 (Beta-secretase 1): 41 µM
